Structures can show the parent of a compound that is named as a salt. Where two headings read alike, the source gives them in different places.
Tests used:
1405R3 = assay: High-throughput drug screen, CellTiter-Glo viability, 72 h; format: cell-based, human; design: AUC: scale not given here; conditions: for EC50: fitted dose-response curve, Min.Conc.tested 1, Max.Conc.tested 10000, read-out: EC50
Outline: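 Responses are drug sensitivity scores (efficacy cutoff ≥10), fitted from CellTiter-Glo luminescence. Each drug was given at five concentrations (10 to 0.001 μM, tenfold steps) in duplicate for 72 h. Cells were plated at 3000/well 24 h before dosing.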

783C-6 = assay: as above; format: cell-based, human; design: AUC: scale not given here; conditions: for EC50: read-out: EC50
Outline: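 Cholangiocarcinoma cells were seeded at 3000/well in 384-well plates and dosed after 24 h. Drugs were tested at 10, 1, 0.1, 0.01 and 0.001 μM in duplicate for 72 h, with viability read by CellTiter-Glo luminescence.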

[1] = 1405R3 DSRT analysis, area under the dose-response curve
[2] = 1405R3 DSRT analysis, drug sensitivity score
[3] = 1405R3 DSRT analysis, lower asymptote of fitted dose-response curve
[4] = Homo sapiens, 1405R3 DSRT analysis, CellTiter-Glo viability, 72 h, GI50
[5] = 783C-6 cells, DSS of DSRT analysis
[6] = 783C-6 cells, area under the dose-response curve
[7] = 783C-6 cells, minimum of dose-response curve
[8] = 1405R3 DSRT analysis, CellTiter-Glo, 72 h
[9] = 1405R3 DSRT analysis, slope of fitted dose-response curve
[10] = 783C-6 DSRT analysis, CellTiter-Glo viability, 72 h, fitted dose-response curve, Min.Conc.tested 1, Max.Conc.tested 10000
[11] = 783C-6 DSRT analysis, DSS calculated from the dose-response curve
[12] = 783C-6 DSRT analysis, MIN of the fitted dose-response curve
[13] = 783C-6 DSRT analysis, area under the dose-response curve
[14] = 783C-6 DSRT analysis, slope of the fitted dose-response curve
[15] = Homo sapiens, 1405R3 DSRT analysis, CellTiter-Glo, 72 h

O=C(CCCCCCNC(=O)c1cnc(N(c2ccccc2)c2ccccc2)nc1)NO [Ricolinostat]
AUC (1405R3; [1]): 20.6 | DSS (1405R3; [2]): 1.9 | MIN (1405R3; [3]): 71.1 | EC50 (1405R3; [4]): 1950 nM | DSS (783C-6; [5]): 2.2 | AUC (783C-6; [6]): 22.4 | MIN (783C-6; [7]): 66.7 | EC50 (783C-6; Homo sapiens, 72 h): 2140 nM

Cc1cc(Nc2cc(N3CCN(C)CC3)nc(Sc3ccc(NC(=O)C4CC4)cc3)n2)[nH]n1 [Tozasertib]
DSS (1405R3): 1.8 | AUC (1405R3; [1]): 19.9 | MIN (1405R3; [3]): 76.4 | DSS (783C-6; [5]): 4.1 | AUC (783C-6; [6]): 41.4 | MIN (783C-6; [7]): 78.1

AR-42
DSS (1405R3; 1405R3 DSRT analysis, DSS): 11 | AUC (1405R3; [1]): 98.5 | EC50 (1405R3; [8]): 1030 nM | MIN (1405R3; [3]): 1.2 | SLOPE (1405R3; [9]): -1.5 | EC50 (783C-6; [10]): 1080 nM | DSS (783C-6; [11]): 10.5 | MIN (783C-6; [12]): 2.3 | AUC (783C-6; [13]): 96.3 | SLOPE (783C-6; [14]): -1.3

Cc1ccc(F)c(NC(=O)Nc2ccc(-c3cccc4[nH]nc(N)c34)cc2)c1 [Linifanib]
DSS (1405R3; 1405R3 DSRT analysis, DSS): 0 | AUC (1405R3; [1]): 3.9 | MIN (1405R3; [3]): 97.4 | DSS (783C-6; [11]): 3.9 | MIN (783C-6; [12]): 68.4 | AUC (783C-6; [13]): 53 | EC50 (783C-6; Homo sapiens, 72 h): 255 nM

Cn1cc(CNCC2CCN(c3ncc(C(=O)NO)cn3)CC2)c2ccccc21 [Quisinostat]
AUC (1405R3; [1]): 180.7 | DSS (1405R3; [2]): 21.1 | MIN (1405R3; [3]): 0.1 | EC50 (1405R3; [4]): 156 nM | DSS (783C-6; [5]): 26.9 | AUC (783C-6; [6]): 227.2 | MIN (783C-6; [7]): 1.2 | EC50 (783C-6; Homo sapiens, 72 h): 50 nM

C#Cc1cccc(Nc2ncnc3cc(OC)c(OCCCCCCC(=O)NO)cc23)c1 [CUDC-101]
DSS (1405R3; 1405R3 DSRT analysis, DSS): 10 | AUC (1405R3; [1]): 85.7 | MIN (1405R3; [3]): 2.9 | EC50 (1405R3; [15]): 1310 nM | DSS (783C-6; [11]): 8.7 | MIN (783C-6; [12]): 2.2 | AUC (783C-6; [13]): 75.9 | EC50 (783C-6; Homo sapiens, 72 h): 1680 nM

CC(=O)O[C@H]1C(=O)[C@@]2(C)[C@H]([C@H](OC(=O)c3ccccc3)[C@]3(O)C[C@H](OC(=O)[C@H](O)[C@@H](NC(=O)c4ccccc4)c4ccccc4)C(C)=C1C3(C)C)[C@]1(OC(C)=O)CO[C@@H]1C[C@@H]2O [Paclitaxel]
AUC (1405R3; [1]): 129.3 | DSS (1405R3; [2]): 14.6 | MIN (1405R3; [3]): 37.8 | EC50 (1405R3; [4]): 82.1 nM | DSS (783C-6; [5]): 21.1 | AUC (783C-6; [6]): 167.6 | MIN (783C-6; [7]): 52.1 | EC50 (783C-6; Homo sapiens, 72 h): 1.9 nM

Nc1cc(F)ccc1NC(=O)c1ccc(CNC(=O)/C=C/c2cccnc2)cc1 [Tucidinostat]
AUC (1405R3; [1]): 73.3 | DSS (1405R3; [2]): 7 | MIN (1405R3; [3]): 44 | EC50 (1405R3; [4]): 607 nM | DSS (783C-6; [5]): 6.5 | AUC (783C-6; [6]): 59.3 | MIN (783C-6; [7]): 25.1 | EC50 (783C-6; Homo sapiens, 72 h): 1660 nM

O=C(CCc1ccc(CN[C@H](C(=O)OC2CCCC2)C2CCCCC2)cn1)NO [GSK3117391]
DSS (1405R3; 1405R3 DSRT analysis, DSS): 8.4 | AUC (1405R3; [1]): 74.7 | EC50 (1405R3; [8]): 1580 nM | MIN (1405R3; [3]): 7.4 | SLOPE (1405R3; [9]): -1.9 | EC50 (783C-6; [10]): 2090 nM | DSS (783C-6; [11]): 7.5 | MIN (783C-6; [12]): 4.1 | AUC (783C-6; [13]): 65.5 | SLOPE (783C-6; [14]): -2.5

c1ccc([C@@H]2C[C@H]2NC2CCNCC2)cc1 [GSK-LSD1 2HCl]
D1 (1405R3): 104.9 | D2 (1405R3): 104.6 | D3 (1405R3): 91.3 | D4 (1405R3): 100.7 | D5 (1405R3): 129.6 | MAX (1405R3): 100 | MIN (1405R3): 91.3 | SLOPE (1405R3): -0.4 | DSS (1405R3; 1405R3 DSRT analysis, DSS): 0 | AUC (1405R3; 72 h): 5.8 | D1 (783C-6): 98.8 | D2 (783C-6): 106.9 | D3 (783C-6): 94.2 | D4 (783C-6): 93.9 | D5 (783C-6): 108.3 | MAX (783C-6): 100 | MIN (783C-6): 93.9 | SLOPE (783C-6): -0.3 | AUC (783C-6; 72 h): 6 | DSS (783C-6; 72 h): 0

Nc1ccccc1NC(=O)c1cnccn1 [BG45]
DSS (1405R3; 1405R3 DSRT analysis, DSS): 0.1 | AUC (1405R3; [1]): 36.3 | MIN (1405R3; [3]): 83.6 | SLOPE (1405R3; [9]): -0.1 | DSS (783C-6; [11]): 2.2 | MIN (783C-6; [12]): 83.6 | AUC (783C-6; [13]): 49 | SLOPE (783C-6; [14]): -0.3

Cn1cc(-c2ccc(S(=O)(=O)n3ccc(/C=C/C(=O)Nc4ccccc4N)c3)cc2)cn1 [4SC-202]
DSS (1405R3; 1405R3 DSRT analysis, DSS): 3.9 | AUC (1405R3; [1]): 35.8 | EC50 (1405R3; [8]): 1420 nM | MIN (1405R3; [3]): 57.9 | SLOPE (1405R3; [9]): -2.3 | EC50 (783C-6; [10]): 780 nM | DSS (783C-6; [11]): 6.7 | MIN (783C-6; [12]): 48.6 | AUC (783C-6; [13]): 57 | SLOPE (783C-6; [14]): -2.5

O=C(NNS(=O)(=O)c1ccccc1F)c1cc(F)cc(-c2ccccn2)c1 [WM-1119]
AUC (1405R3; [1]): 51.4 | DSS (1405R3; [2]): 0 | MIN (1405R3; [3]): 66.9 | DSS (783C-6; [5]): 0 | AUC (783C-6; [6]): 7.3 | MIN (783C-6; [7]): 75.9

CCOC(=O)CCNc1cc(N2CCc3ccccc3CC2)nc(-c2ccccn2)n1 [GSK J4 HCl]
DSS (1405R3; 1405R3 DSRT analysis, DSS): 2.7 | AUC (1405R3; [1]): 26.1 | MIN (1405R3; [3]): 65 | EC50 (1405R3; [15]): 1800 nM | DSS (783C-6; [11]): 0 | MIN (783C-6; [12]): 70.3 | AUC (783C-6; [13]): 8.9

CCCC(CCC)C(=O)O [Valproic acid]
AUC (1405R3; [1]): 18.4 | DSS (1405R3; [2]): 0 | MIN (1405R3; [3]): 88.1 | DSS (783C-6; [5]): 0 | AUC (783C-6; [6]): 4.4 | MIN (783C-6; [7]): 85.5

CCN(CC)Cc1ccc2cc(COC(=O)Nc3ccc(C(=O)NO)cc3)ccc2c1 [Givinostat]
DSS (1405R3; 1405R3 DSRT analysis, DSS): 9.2 | AUC (1405R3; [1]): 79.9 | MIN (1405R3; [3]): 1.5 | EC50 (1405R3; [15]): 1550 nM | DSS (783C-6; [11]): 9.2 | MIN (783C-6; [12]): 1.5 | AUC (783C-6; [13]): 81.1 | EC50 (783C-6; Homo sapiens, 72 h): 1520 nM

O=C(CCCCCCNC(=O)c1cnc(N(c2ccccc2)c2ccccc2Cl)nc1)NO [Citarinostat]
DSS (1405R3; 1405R3 DSRT analysis, DSS): 3.5 | AUC (1405R3; [1]): 32.3 | MIN (1405R3; [3]): 46.8 | EC50 (1405R3; [15]): 2500 nM | DSS (783C-6; [11]): 3.4 | MIN (783C-6; [12]): 50.9 | AUC (783C-6; [13]): 31.7 | EC50 (783C-6; Homo sapiens, 72 h): 2280 nM

CN(C)Cc1c(C(=O)NCCOc2ccc(C(=O)NO)cc2)oc2ccccc12 [Abexinostat]
DSS (1405R3; 1405R3 DSRT analysis, DSS): 6 | AUC (1405R3; [1]): 53 | MIN (1405R3; [3]): 14.8 | EC50 (1405R3; [15]): 2420 nM | DSS (783C-6; [11]): 5.3 | MIN (783C-6; [12]): 6.1 | AUC (783C-6; [13]): 48.2 | EC50 (783C-6; Homo sapiens, 72 h): 3130 nM

CNCCN(C)Cc1cn[nH]c1-c1ccc(OC2CC(OCCC3CCOCC3)C2)cc1.Cl (centres unmarked) [EPZ020411 2HCl]
DSS (1405R3; 1405R3 DSRT analysis, DSS): 0 | AUC (1405R3; [1]): 0.3 | MIN (1405R3; [3]): 97.2 | SLOPE (1405R3; [9]): -2.5 | DSS (783C-6; [11]): 0 | MIN (783C-6; [12]): 96.5 | AUC (783C-6; [13]): 1.7 | SLOPE (783C-6; [14]): -0.6

COc1ccc(CCc2nc3cc(-c4c(C)noc4C)ccc3n2C[C@H](C)N2CCOCC2)cc1Cl [SGC-CBP30]
AUC (1405R3; [1]): 28.3 | DSS (1405R3; [2]): 0 | MIN (1405R3; [3]): 84.6 | DSS (783C-6; [5]): 0 | AUC (783C-6; [6]): 4.1 | MIN (783C-6; [7]): 86.4

Cc1cc(-c2ccccc2)cc(C(=O)NNS(=O)(=O)c2ccccc2)c1F [WM-8014]
AUC (1405R3; [1]): 16.3 | DSS (1405R3; [2]): 0 | MIN (1405R3; [3]): 89.5 | SLOPE (1405R3; [9]): -0.1 | DSS (783C-6; [5]): 0 | AUC (783C-6; [6]): 5.5 | MIN (783C-6; [7]): 81.8 | SLOPE (783C-6; 783C-6 cells, slope of fitted dose-response curve): -1

Source: publication PMC12518634, “The noncanonical function of liver-type phosphofructokinase potentiates the efficacy of HDAC inhibitors in cancer” (Signal Transduction and Targeted Therapy, 2025)
